Laboratory results taken from patent US8609651B2, “Pharmaceutical compositions of benzodiazepines and method of use thereof” (Jazz Pharmaceuticals, Inc., priority 2006, dated 2013).
In brackets after ≈: the same amount, converted by molar mass.

Key:
[1] = Human pharmacokinetic study (oral, intravenous, intranasal cross-over); conditions: 1 mg; for AUC / Cmax / Tmax / bioavailability: male, plasma; for bioavailability: other: intranasal, intranasal 1 mg
Method: The human pharmacokinetics, safety, and tolerability of the benzodiazepines compositions of the present invention formulated for intranasal delivery for therapeutic applications are evaluated using standard clinical procedures. Benzodiazepine compositions formulated for intranasal delivery are provided, for example, for application by the participants to intranasal mucosa.
A primary objective of initial studies in humans is to determine and compare pharmacokinetic profiles of three dosage forms of a benzodiazepine: oral, i.v., and intranasal, following single administration. An example of such a study in humans is a cross-over study performed in 12 healthy male volunteers. Plasma and urine level of clonazepam and 7-amino-clonazepam are determined, for example, using HPLC and UV detection. […] Further the initial studies in humans are used to determine local tolerability of intranasal formulation using questionnaire and the Visual Analog Scale (VAS). VAS is a validated instrument that has been used in numerous studies to quantify subjective […]. In addition, cognitive, sleepiness and mood effects are evaluated using questionnaires and scales (see, e.g., Example 10 below). Further, attention and vigilance may be evaluated using, for example, LEEDS Psychomotor Multiple Choice Reaction Time (MCRT) testing.
A human pharmacokinetic study was carried out as described in Example 8.
15 young, healthy male volunteers received a single dose of 1 mg clonazepam by oral, intravenous and intranasal routes in a three-period cross-over design.

[2] = qEEG mapping in volunteers; type: in vivo; conditions: human, oral
[3] = Solubilities of clonazepam in glycol ethers at 3 temperatures; conditions: neat solvent, organic solvent or mixture, thermodynamic from solid
Method: The vials were then centrifuged at −5° C. and 5° C. for the −15° C. and 5° C. samples, respectively, at 5000 rpm for 2 minutes.

[4] = in vivo; cited from earlier work
[5] = Human safety and tolerability (side effects); type: in vivo
Description: Somnolence was reported by 10 of 15 (approximately 67%) subjects after intranasal dosing and 13 of 15 (approximately 87%) subjects after oral dosing. Approximately 93% of the subjects reported somnolence or sedation ( 11/15 for somnolence and 3/15 for sedation) after intravenous dosing. Nasal discomfort was reported by 12 of 15 subjects (approximately 80%) after intranasal dosing.

[6] = Solubility of clonazepam in binary solvent mixtures; conditions: triacetin/glycofurol 50:50 mixture, 25 °C, organic solvent or mixture, thermodynamic from solid
Method: Further, the solubility of clonazepam in binary mixtures of Transcutol® (TC), triacetin (TA), glycofurol (GF) and propylene glycol (PG) was evaluated. Solubility limits of clonazepam were determined for the following formulations:
Excess drug (50 mg) was capped with about 500 μL of the solvent matrix in a 1.5 mL microfuge tube and the solution was mixed on a vortex shaker for several minutes. Thereafter, the solution was placed in an ultrasonic bath at 25° C. for 45 minutes. The temperature was regulated with a thermometer and controlled by adding ice into the bath. After 15 minutes of standing, the solutions were centrifuged at 3,000×g for 30 minutes. Solutions were then stored for 16 hours at 25° C. in an ICH cabinet protected from light.

[7] = Solubility of benzodiazepines in DEGEE (Transcutol) at 25° C. and −16° C.; conditions: organic solvent or mixture, thermodynamic from solid
Method: The solubilities of several other benzodiazepines were measured in DEGEE (diethylene glycol monoethyl ether, transcutol) by the techniques of Example 1. Initially, 10 mg of the drug was loaded in the glass vial and 130-μL of DEGEE was added, and the samples were sonicated for 10 minutes. […] Samples were stored at −16° C. and 25° C. overnight, and centrifuged (5000 rpm, 2 minutes, −10° C. and 23° C. for the −16° C. and 25° C. samples, respectively). […] Clonazepam was measured by UV at 350 nm; all others at 300 nm.

[8] = Solubilities of clonazepam in water-containing solvents; type: physicochemical; conditions: 25 °C
Method: The vials were stored at 25° C. for approximately 1 day. Prior to sampling, the vials were centrifuged at 5000 rpm for 2 minutes at 23° C. The results are shown below; neat solvent solubilities from Example 11 are included for reference. Increased water content decreases solubility substantially.

## O=C1CN=C(c2ccccc2Cl)c2cc([N+](=O)[O-])ccc2N1 [Clonazepam, 5-(2-chlorophenyl)-1,3-dihydro-7-nitro-2H-1,4-benzodiazepin-2-one]
[1]
  Cmax of the intranasal route as % of the intravenous route: 17%
  Cmax of the intranasal route as % of the oral route: 93%
[1]; inhaled or intranasal
  AUC: ~58 ng·h/mL
  Cmax: 7.12 ± 3.81 ng/mL
  Tmax: 12 min
[1]; intravenous
  Tmax: 6 min
[1]; iv
  AUC: ~106 ng·h/mL
  Cmax: 42.5 ± 10.8 ng/mL
[1]; bioavailability relative to intravenous
  bioavailability: 55%
[1]; bioavailability relative to oral
  bioavailability: 61%
[1]; po
  AUC: ~95 ng·h/mL
  Cmax: 7.64 ± 1.74 ng/mL
  Tmax: 120 min
[2]
  time after dosing at which EEG pattern (increased delta and beta, decreased alpha and theta) was noted: approximately 2 hours
[3]; 1,2-dimethyxoethane, 5 °C
  solubility: 35.7 mg/mL (≈ 113 mM)
[3]; 1,2-dimethyxoethane, 25 °C
  solubility: 39.3 mg/mL (≈ 124 mM)
[3]; 1,2-dimethyxoethane, -15 °C
  solubility: 35.2 mg/mL (≈ 111 mM)
[3]; di(ethylene glycol) diethyl ether, 5 °C
  solubility: 18.5 mg/mL (≈ 58.6 mM)
[3]; di(ethylene glycol) diethyl ether, 25 °C
  solubility: 19 mg/mL (≈ 60.2 mM)
[3]; di(ethylene glycol) diethyl ether, -15 °C
  solubility: 19.5 mg/mL (≈ 61.8 mM)
[3]; di(ethylene glycol) methyl ether, 5 °C
  solubility: 53.9 mg/mL (≈ 171 mM)
[3]; di(ethylene glycol) methyl ether, 25 °C
  solubility: 56.4 mg/mL (≈ 179 mM)
[3]; di(ethylene glycol) methyl ether, -15 °C
  solubility: 58.1 mg/mL (≈ 184 mM)
[3]; diethylene glycol monoethyl ether (DEGEE), 25 °C
  solubility: 41.8 mg/mL (≈ 132 mM)
[3]; diethylene glycol monoethyl ether, 5 °C
  solubility: 37.7 mg/mL (≈ 119 mM)
[3]; diethylene glycol monoethyl ether, -15 °C
  solubility: 43.3 mg/mL (≈ 137 mM)
[4]
  amount excreted unchanged in the urine: less than 0.5 % of a dose
  excreted in the feces: 9-27 % of a dose
  half-life: 1080 to 3000 min
  roughly equal dose (potency equivalence): ~0.25 mg
[5]; after intranasal dosing, 10 of 15
  subjects reporting somnolence: approximately 67%
[5]; after intranasal dosing, 12 of 15
  subjects reporting nasal discomfort: approximately 80%
[5]; after intravenous dosing
  subjects reporting somnolence or sedation: Approximately 93%
  subjects with sedation: 3/15
  subjects with somnolence: 11/15
[5]; after oral dosing, 13 of 15
  subjects reporting somnolence: approximately 87%
[5]; human
  changes in laboratory parameters: no clinically relevant changes
[5]; human, all routes
  Somnolence reported in the study: 75.6%
  nasal discomfort reported in the study: 26.7%
[6]
  solubility at 16 h: ~36.4 mg/mL (≈ 115 mM)
[7]; 25 °C
  solubility: 38.9 mg/mL (≈ 123 mM)
[7]; -16 °C
  solubility: 35.3 mg/mL (≈ 112 mM)
[8]; 1,2-dimethyxoethane / pH 6.8 buffered water mixture (20:80), pH 6.8, aqueous with cosolvent or surfactant or cyclodextrin, kinetic from dmso stock, 1,2-dimethyxoethane 20% solvent, 80% pH6.8 buffered water, 25° C.
  solubility: 0.18 mg/mL (≈ 0.57 mM)
[8]; 1,2-dimethyxoethane / pH 6.8 buffered water mixture (40:60), pH 6.8, aqueous with cosolvent or surfactant or cyclodextrin, kinetic from dmso stock, 1,2-dimethyxoethane 40% solvent, 60% pH6.8 buffered water, 25° C.
  solubility: 0.64 mg/mL (≈ 2.03 mM)
[8]; 1,2-dimethyxoethane / pH 6.8 buffered water mixture (60:40), pH 6.8, aqueous with cosolvent or surfactant or cyclodextrin, kinetic from dmso stock, 1,2-dimethyxoethane 60% solvent, 40% pH6.8 buffered water, 25° C.
  solubility: 9.2 mg/mL (≈ 29.1 mM)
[8]; 1,2-dimethyxoethane / pH 6.8 buffered water mixture (80:20), pH 6.8, aqueous with cosolvent or surfactant or cyclodextrin, kinetic from dmso stock, 1,2-dimethyxoethane 80% solvent, 20% pH6.8 buffered water, 25° C.
  solubility: 29.6 mg/mL (≈ 93.8 mM)
[8]; 1,2-dimethyxoethane, neat solvent, organic solvent or mixture, 1,2-dimethyxoethane 100% solvent, 0% water, 25° C. (neat, from Example 11)
  solubility: 39.3 mg/mL (≈ 124 mM)
[8]; pH 6.8, aqueous with cosolvent or surfactant or cyclodextrin, kinetic from dmso stock, Di (ethylene glycol) methyl ether 20% solvent, 80% pH6.8 buffered water
  solubility: 0.26 mg/mL (≈ 0.824 mM)
[8]; pH 6.8, aqueous with cosolvent or surfactant or cyclodextrin, kinetic from dmso stock, Di (ethylene glycol) methyl ether 40% solvent, 60% pH6.8 buffered water
  solubility: 1 mg/mL (≈ 3.17 mM)
[8]; pH 6.8, aqueous with cosolvent or surfactant or cyclodextrin, kinetic from dmso stock, Di (ethylene glycol) methyl ether 60% solvent, 40% pH6.8 buffered water
  solubility: 2.8 mg/mL (≈ 8.87 mM)
[8]; pH 6.8, aqueous with cosolvent or surfactant or cyclodextrin, kinetic from dmso stock, Di (ethylene glycol) methyl ether 80% solvent, 20% pH6.8 buffered water
  solubility: 18.9 mg/mL (≈ 59.9 mM)
[8]; pH 6.8, aqueous with cosolvent or surfactant or cyclodextrin, kinetic from dmso stock, Di (ethyleneglycol) diethyl ether 20% solvent, 80% pH6.8 buffered water
  solubility: 0.31 mg/mL (≈ 0.982 mM)
[8]; pH 6.8, aqueous with cosolvent or surfactant or cyclodextrin, kinetic from dmso stock, Di (ethyleneglycol) diethyl ether 40% solvent, 60% pH6.8 buffered water
  solubility: 1.23 mg/mL (≈ 3.9 mM)
[8]; pH 6.8, aqueous with cosolvent or surfactant or cyclodextrin, kinetic from dmso stock, Di (ethyleneglycol) diethyl ether 60% solvent, 40% pH6.8 buffered water
  solubility: 8.5 mg/mL (≈ 26.9 mM)
[8]; pH 6.8, aqueous with cosolvent or surfactant or cyclodextrin, kinetic from dmso stock, Di (ethyleneglycol) diethyl ether 80% solvent, 20% pH6.8 buffered water
  solubility: 38.8 mg/mL (≈ 123 mM)
[8]; pH 6.8, aqueous with cosolvent or surfactant or cyclodextrin, kinetic from dmso stock, Diethylene glycol monoethyl ether 20% solvent, 80% pH6.8 buffered water
  solubility: 0.3 mg/mL (≈ 0.95 mM)
[8]; pH 6.8, aqueous with cosolvent or surfactant or cyclodextrin, kinetic from dmso stock, Diethylene glycol monoethyl ether 40% solvent, 60% pH6.8 buffered water
  solubility: 0.52 mg/mL (≈ 1.65 mM)
[8]; pH 6.8, aqueous with cosolvent or surfactant or cyclodextrin, kinetic from dmso stock, Diethylene glycol monoethyl ether 60% solvent, 40% pH6.8 buffered water
  solubility: 4.5 mg/mL (≈ 14.3 mM)
[8]; pH 6.8, aqueous with cosolvent or surfactant or cyclodextrin, kinetic from dmso stock, Diethylene glycol monoethyl ether 80% solvent, 20% pH6.8 buffered water
  solubility: 21.8 mg/mL (≈ 69 mM)
[8]; di(ethylene glycol) diethyl ether, neat solvent, organic solvent or mixture, Di (ethyleneglycol) diethyl ether 100% solvent, 0% water, 25° C. (neat, from Example 11)
  solubility: 19 mg/mL (≈ 60.2 mM)
[8]; di(ethylene glycol) methyl ether, neat solvent, organic solvent or mixture, Di (ethylene glycol) methyl ether 100% solvent, 0% water, 25° C. (neat, from Example 11)
  solubility: 56.4 mg/mL (≈ 179 mM)
[8]; diethylene glycol monoethyl ether (DEGEE), neat solvent, organic solvent or mixture, Diethylene glycol monoethyl ether 100% solvent, 0% water, 25° C. (neat, from Example 11)
  solubility: 41.8 mg/mL (≈ 132 mM)
